This is an account of results in patent US6395717B1, “Therapeutic drug for endotoxin blood symptom and multi-organ failure induced thereby” (priority 1995, dated 2002).

SMILES strings stand for the structures.

Series [1] relates to endotoxin-shock. As to the kind of experiment: Effect of sialic acid in reduction of endotoxin-shock (survival 24 hours after endotoxin). The format is in vivo, SMA-strain male mice. The note with it: living mice 24 hours later. The method, then: Tests were conducted with respect to endotoxin-sensitive, SMA-strain male mice (20 to 30 g) used: (1) sixteen control mice, (2) eight mice each administrated with sialic acid and (3) six mice each administrated with a polymer of sialic acid. (1) With respect to the control mice, 0.1 ml/10 g of physiological saline was peritoneally administrated 30 minutes before the administration of an endotoxin. (2) With respect to the mice administrated with sialic acid, a solution in which 100 mg of sialic acid was dissolved in 10 ml of physiological saline or a ten-times diluted solution thereof was peritoneally administrated to the mouse at a rate of 0.1 ml/10 g of the mouse (Dosage: 100 mg/Kg, 10 mg/Kg). (3) With respect to the mice administrated with the sialic acid polymer, a solution in which 100 mg of a dimer or a trimmer of sialic acid was dissolved in 10 ml of physiological saline or a ten-times was peritoneally administrated to the mouse at a rate of 0.1 ml/10 g (Dosage: 100 mg/Kg). Thirty minutes after the administration, a physiological saline solution of endotoxin (10 mg/ml) was peritoneally administrated to the mouse at a rate of […] (administrated amount: 100 mg/Kg). Then, the number of living mice 24 hours later was checked. […]

The test system of series [2] is renal failure induced by endotoxin. As to the kind of experiment: Effect upon renal failure induced by endotoxin (kidney clearance of inulin and paraaminohippuric acid). Type of series: in vivo, Whister-strain rats. The note with it: 10 mg/Kg intravenous. On the procedure:
Into each of ten Whister-strain rats (8 to 9 week age) having undergone cannulation at the carotid canal and the bladder was intraveneously drip-infused a 4% manitol solution containing inulin (5 mg/ml) and paraaminohippuric acid (2.5 mg/ml) at a rate of 0.1144 ml/min. Thirty minutes thereafter, a physiological saline solution of sialic acid ([…]) was administered, at a rate of 0.2 ml/100 g (dosage: 10 mg/Kg), to each of the rats administered with sialic acid, whereas the same amount of physiological saline was rapidly interveneously injected to the control rats. Another thirty minutes thereafter, a physiological saline solution of endotoxin was interaveneously injected to the rats (dosage: 0.25 mg/Kg). Then, blood and urine were sampled over 90 minutes, and the concentrations of inulin and paraaminohippuric acid were measured. A kidney clearance was calculated according to the following formula. Urine was collected at an interval of 15 minutes after the administration of sialic acid or physiological saline (in FIG. 2, −15 to 0 minutes, 0 to 15 minutes, 15 to 30 minutes, 30 to 45 minutes and 45 to 60 minutes), and blood was sampled at a middle point of a time period during urine-collecting. The clearance values are shown at such middle points for the respective fractions.
Kidney clearance=Amount of the drug recovered in urine collected in the collecting time period÷Concentration of the drug in plasma at the middle point
The concentration of inulin was measured by the Dishe & Borefreund's method (Z. Dishe and E. Borefreund, J. Biol. Chem., 192, 583-587 (1951)), and the concentration of paraaminohippuric acid was measured by the Marshall's method (E. K. Marshall, J. Biol. Chem., 122, 263-273 (1937)).
Results of the ratio in the filtering speed through glomerulus are shown in FIG. 2, and results of the ratio in renal plasma flow are in FIG. 3. In both the figures, the ordinate means the ratio in the filtering speed through glomerulus or the ratio in the renal plasma flow for 30 minutes between the intraveneous dip infusion of inulin and paraaminohippuric acid and the intraveneous injection of sialic acid or physiological saline.

The mark [3] stands for this setting: endotoxin 0.25 mg/Kg iv 30 minutes later, 30 minutes after endotoxin administration.

In series [1] (10 mg/Kg peritoneally 30 minutes before endotoxin 100 mg/Kg peritoneally, n=8), `CC(=O)N[C@H]1[C@H]([C@H](O)[C@H](O)CO)OC(O)(C(=O)O)C[C@@H]1O` (stereo partly drawn) [sialic acid, N-acetylneuraminic acid] yielded a survival rate of 50%. Besides, in series [1] (100 mg/Kg peritoneally 30 minutes before endotoxin 100 mg/Kg peritoneally), the survival rate worked out at 87.5%. In series [2] (before endotoxin administration), the “influence on the ratio in the filtering speed through glomerulus and the ratio in the renal plasma flow, sialic acid alone” value was “no influence was observed”. Further, in series [2] (setting [3]), the “decrease of the ratio in the filtering speed through glomerulus” value turned out to be 30% and the “decrease of the ratio in the renal plasma flow” value amounted to 20%. Further, the “reduction in both the ratio in the filtering speed through glomerulus and the ratio in the renal plasma flow due to endotoxin” value in series [2] (risk degree of 5% versus control rats) is given as “significantly prevented”.
